{
  "source": "patent US5731326A",
  "about": "“PDGF antagonists II” (ZymoGenetics, Inc., priority 1996, dated 1998)",
  "key": {"EGF": {"tested_on": "EGF", "assay": "SRE-luciferase antagonist assay, induction by EGF", "type": "cell-based", "conditions": "SWISS3T3 cells, 5 hours", "description": "Initial characterization of NNC92-0270 as a non-peptide PDGF antagonist was made possible through an SRE-Luciferase high through-put assay system which involves selection of substances that are able to block expression of a serum response element (SRE)-luciferase reporter gene expressed in SWISS3T3 cells. […] The degree of antagonist specificity can be determined by comparing the resultant signal for the three growth factors (PDGF, bFGF and EGF). […]\nFollowing induction, luciferase activity was measured using a Promega luciferase assay kit (E1500; Promega Corp., Madison, Wis.) according to the assay kit protocol. […] The amount of luminescence (relative light units, RLU) was determined following a 1 second mix and a 1-3 integration of signal. Basal (uninduced) luciferase signal was subtracted from all measurements, and the luciferase signal induced by test samples was expressed as a percentage of the signal in the control. […]"}, "[1]": {"target": "T1, cell-surface PDGF receptors (Rattus norvegicus, UniProt Q05030)", "T1 construct": "endogenous in cells; host or cells: rat smooth muscle cells (SMCs), monolayer culture", "T1 sequence (Q05030 32-1097)": "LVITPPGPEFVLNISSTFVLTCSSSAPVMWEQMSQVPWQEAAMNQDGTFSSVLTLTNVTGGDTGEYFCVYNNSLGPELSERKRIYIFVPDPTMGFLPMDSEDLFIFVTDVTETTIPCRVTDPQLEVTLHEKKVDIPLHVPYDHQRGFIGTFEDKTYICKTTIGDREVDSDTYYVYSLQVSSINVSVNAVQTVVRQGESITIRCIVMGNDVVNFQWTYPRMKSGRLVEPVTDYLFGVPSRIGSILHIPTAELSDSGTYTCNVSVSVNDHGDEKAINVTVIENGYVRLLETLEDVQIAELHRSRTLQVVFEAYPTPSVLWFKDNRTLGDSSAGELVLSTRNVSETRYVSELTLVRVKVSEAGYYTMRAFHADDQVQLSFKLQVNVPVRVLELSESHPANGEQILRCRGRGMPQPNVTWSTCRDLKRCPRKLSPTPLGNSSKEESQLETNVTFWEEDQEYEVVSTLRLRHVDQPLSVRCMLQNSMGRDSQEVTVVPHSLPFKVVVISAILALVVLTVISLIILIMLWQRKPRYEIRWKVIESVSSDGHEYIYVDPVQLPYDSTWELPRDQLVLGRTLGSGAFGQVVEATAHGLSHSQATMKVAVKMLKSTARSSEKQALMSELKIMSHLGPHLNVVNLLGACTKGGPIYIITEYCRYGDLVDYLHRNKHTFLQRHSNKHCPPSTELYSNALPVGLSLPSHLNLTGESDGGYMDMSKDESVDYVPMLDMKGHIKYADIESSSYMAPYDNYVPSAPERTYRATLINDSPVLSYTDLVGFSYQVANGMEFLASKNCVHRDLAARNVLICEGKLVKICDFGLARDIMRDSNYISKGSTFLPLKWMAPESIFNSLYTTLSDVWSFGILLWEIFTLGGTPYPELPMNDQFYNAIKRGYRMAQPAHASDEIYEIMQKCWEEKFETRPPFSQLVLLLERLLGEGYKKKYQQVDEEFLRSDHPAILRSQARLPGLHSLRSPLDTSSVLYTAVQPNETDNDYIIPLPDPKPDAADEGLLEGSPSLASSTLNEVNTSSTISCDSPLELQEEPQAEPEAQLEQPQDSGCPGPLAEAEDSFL", "assay": "Inhibition of 125I-PDGF-BB binding to rat SMCs in the presence and absence of human serum", "conditions": "for CPM Bound, Binding Media + 10% Human Serum / CPM Bound, Binding Media: total CPM bound; for CPM Bound, Binding Media + 10% Human Serum: neg. control 1152; for CPM Bound, Binding Media: neg. control 1990", "protocol": "NNC92-0270 was analyzed for the ability to inhibit ^125 I-PDGF-BB binding to monolayers of rat SMCs. To assay for inhibition of ^125 I-PDGF-BB binding to rat SMCs, the SMCs were plated at approximately 20,000 cells/well in 24-well culture dishes. The cells were used for assay 2-7 days after plating. The test compound was diluted in binding media (500 ml Ham's F-12 (Gibco BRL), 12 ml 1M Hepes pH 7.4, 5 ml 100×PSN (Gibco BRL), 1 gm rabbit serum albumin (Sigma Chemical Co., St. Louis, Mo.) to the concentrations shown in Table 2, then added to the SMCs (1 ml/well) in triplicate. To the wells was then added 50 μl of a ^125 I-PDGF-BB stock solution. Binding media alone was used as the negative control, and the addition of 200 ng/ml of PDGF-BB was used to determine nonspecific binding for ^125 I-PDGF-BB. The cells were incubated for approximately 11/2 hours at 4° C., then washed with binding media to remove unbound ligand. The cells were then incubated with extraction buffer (20 mM Tris-HCl, pH 8.0, 100 mM NaCl, 1 mM EDTA, 0.5% Nonident P-40, 0.5% sodium deoxycholate, 10 mM NaI, 1% bovine serum albumin), and the extracts were harvested and counted in a gamma counter. The data are presented as specific cpm bound for ^125 I-PDGF-BB. Nonspecific binding, determined by the addition of 200 ng/ml of unlabeled PDGF-BB, was 853 cpm, and has been subtracted from the data presented.\nNNC92-0270 was subsequently analyzed for its ability to inhibit ^125 I-PDGF-BB binding to rat SMCs when the radioligand was added to the cells in the presence of 10% human serum. The rat SMCs were plated into 24-well culture dishes and assayed as described above. The test compound was diluted to the concentrations shown in Table 3 in either binding media alone, or binding media containing 10% human serum, and 1 ml aliquots added to the test cells in triplicate. Fifty microliters of a 20×stock solution of ^125 I-PDGF-BB was added to each well. The cells were incubated for 2.5 hours at 4 ° C., washed with binding media to remove unbound ligand, and harvested with extraction buffer. The extracts were then counted in a gamma counter to determine CPM bound. […] It should be noted that the binding of ^125 I-PDGF-BB was lower in the negative control sample containing the human serum, over the negative control sample with binding media alone. The results are presented as total CPM bound."}},
  "note": "Where two headings read alike, the source gives them in different places.",
  "data": [
    {"smiles": "O=C(NN1CCCCC1)NS(=O)(=O)c1ccc(CCNC(=O)c2[nH]c3ccccc3c2OCc2ccccc2)cc1", "note": "[NNC92-0270]", "values": [
      {"measurement": "Induction of SRE-luciferase, EGF IC50", "setting": "EGF", "value": "No activity"},
      {"measurement": "remaining activity at 12.5 µM", "setting": "[1]; 12.5 μM, 10% human serum, read-out: % CB (% Control Binding), Binding Media + 10% Human Serum", "value": 30, "unit": "%"},
      {"measurement": "CPM Bound, Binding Media + 10% Human Serum", "setting": "[1]; 12.5 μM, 10% human serum", "value": 349, "unit": "CPM"},
      {"measurement": "remaining activity at 12.5 µM", "setting": "[1]; 12.5 μM, binding media alone, read-out: % CB (% Control Binding), Binding Media", "value": 36, "unit": "%"},
      {"measurement": "CPM Bound, Binding Media", "setting": "[1]; 12.5 μM, binding media alone", "value": 722, "unit": "CPM"},
      {"measurement": "remaining activity at 25 µM", "setting": "[1]; 25 μM, 10% human serum, read-out: % CB (% Control Binding), Binding Media + 10% Human Serum", "value": 21, "unit": "%"},
      {"measurement": "CPM Bound, Binding Media + 10% Human Serum", "setting": "[1]; 25 μM, 10% human serum", "value": 244, "unit": "CPM"},
      {"measurement": "remaining activity at 25 µM", "setting": "[1]; 25 μM, binding media alone, read-out: % CB (% Control Binding), Binding Media", "value": 30, "unit": "%"},
      {"measurement": "CPM Bound, Binding Media", "setting": "[1]; 25 μM, binding media alone", "value": 605, "unit": "CPM"},
      {"measurement": "remaining activity at 50 µM", "setting": "[1]; 50 μM, 10% human serum, read-out: % CB (% Control Binding), Binding Media + 10% Human Serum", "value": 14, "unit": "%"},
      {"measurement": "CPM Bound, Binding Media + 10% Human Serum", "setting": "[1]; 50 μM, 10% human serum", "value": 162, "unit": "CPM"},
      {"measurement": "remaining activity at 50 µM", "setting": "[1]; 50 μM, binding media alone, read-out: % CB (% Control Binding), Binding Media", "value": 23, "unit": "%"},
      {"measurement": "CPM Bound, Binding Media", "setting": "[1]; 50 μM, binding media alone", "value": 467, "unit": "CPM"},
      {"measurement": "Potency for inhibiting 125I-PDGF-BB binding in 10% human serum compared to binding media alone (in words)", "setting": "[1]; rat SMCs", "value": "approximately equal potency"}
    ]}
  ]
}
